The target in one assay is BTK (Homo sapiens (Human), UniProt Q06187). Nature of the assay: Invitrogen Select Screening in vitro kinase assay. It counts as biochemical.
In another assay the target is mTOR (Homo sapiens (Human), UniProt P42345). Nature of the assay: Invitrogen Select Screening in vitro kinase assay. It is filed as biochemical. From the text: (§1) The in vitro activity of compounds of Formula (I) and (II) in inhibiting BMX and other kinases were obtained using an Invitrogen Select Screening assay as known in the art. The IC50 values determined from this assay are shown below.

Another assay addresses BMX (Homo sapiens (Human), UniProt P51813). Kind of assay: Invitrogen Select Screening in vitro kinase assay. It is filed as biochemical.
The subject of a further assay is Ramos cells. Kind of assay: Cell proliferation analysis for WM and lymphoma cell lines (CellTiter-Glo). It counts as cell-based. The following applies: Homo sapiens, 72 hours. (ATP-based viability assays read luminescence as a measure of living cells.)
For the next assay, the system named is OCI-Ly19 cells. Described as above. It is filed as cell-based. The conditions noted are these: Homo sapiens, 72 hours.
In a further assay the test system is OCI-Ly3 cells. Described as above. It is filed as cell-based. The conditions noted are these: Homo sapiens, 72 hours.
For a further assay, the target named is JAK3 (Homo sapiens (Human), UniProt P52333). Nature of the assay: Invitrogen Select Screening in vitro kinase assay. It counts as biochemical.
For the next assay, the system named is BCWM.1 cells. Nature of the assay: Cell proliferation analysis for WM and lymphoma cell lines (CellTiter-Glo). It is filed as cell-based. The following applies: BCWM1; 72 hours.
A further assay deals with MWCL-1 cells. The description is as above. It is filed as cell-based. The following applies: 72 hours.
The next assay addresses BLK (Homo sapiens (Human), UniProt P51451). Nature of the assay: Invitrogen Select Screening in vitro kinase assay. It counts as biochemical.
Text: as §1

Values joined by “and” are separate entries in the source; they are usually repeats but may differ in a detail not shown here. Equal entries are not always repeated.

Sequence of BMX (P51813 whole entry): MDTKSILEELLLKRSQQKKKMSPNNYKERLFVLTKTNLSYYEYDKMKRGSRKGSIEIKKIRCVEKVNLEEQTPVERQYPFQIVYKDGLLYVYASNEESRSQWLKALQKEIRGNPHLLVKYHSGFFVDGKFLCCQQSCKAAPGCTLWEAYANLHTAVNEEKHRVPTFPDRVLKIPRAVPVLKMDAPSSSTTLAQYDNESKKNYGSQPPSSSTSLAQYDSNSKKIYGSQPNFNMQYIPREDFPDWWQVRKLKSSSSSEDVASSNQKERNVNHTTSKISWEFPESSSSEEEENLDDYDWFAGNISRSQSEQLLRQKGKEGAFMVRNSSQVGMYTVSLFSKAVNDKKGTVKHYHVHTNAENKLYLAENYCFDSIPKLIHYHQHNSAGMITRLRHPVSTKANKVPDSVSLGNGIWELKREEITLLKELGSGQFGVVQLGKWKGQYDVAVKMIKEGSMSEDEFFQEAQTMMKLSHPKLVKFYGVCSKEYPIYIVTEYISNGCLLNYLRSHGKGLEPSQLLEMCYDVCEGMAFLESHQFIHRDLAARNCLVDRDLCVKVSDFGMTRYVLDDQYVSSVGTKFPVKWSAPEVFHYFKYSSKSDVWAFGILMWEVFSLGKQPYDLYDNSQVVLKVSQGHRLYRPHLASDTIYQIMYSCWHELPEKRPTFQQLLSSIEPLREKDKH
Sequence of BTK (Q06187 whole entry): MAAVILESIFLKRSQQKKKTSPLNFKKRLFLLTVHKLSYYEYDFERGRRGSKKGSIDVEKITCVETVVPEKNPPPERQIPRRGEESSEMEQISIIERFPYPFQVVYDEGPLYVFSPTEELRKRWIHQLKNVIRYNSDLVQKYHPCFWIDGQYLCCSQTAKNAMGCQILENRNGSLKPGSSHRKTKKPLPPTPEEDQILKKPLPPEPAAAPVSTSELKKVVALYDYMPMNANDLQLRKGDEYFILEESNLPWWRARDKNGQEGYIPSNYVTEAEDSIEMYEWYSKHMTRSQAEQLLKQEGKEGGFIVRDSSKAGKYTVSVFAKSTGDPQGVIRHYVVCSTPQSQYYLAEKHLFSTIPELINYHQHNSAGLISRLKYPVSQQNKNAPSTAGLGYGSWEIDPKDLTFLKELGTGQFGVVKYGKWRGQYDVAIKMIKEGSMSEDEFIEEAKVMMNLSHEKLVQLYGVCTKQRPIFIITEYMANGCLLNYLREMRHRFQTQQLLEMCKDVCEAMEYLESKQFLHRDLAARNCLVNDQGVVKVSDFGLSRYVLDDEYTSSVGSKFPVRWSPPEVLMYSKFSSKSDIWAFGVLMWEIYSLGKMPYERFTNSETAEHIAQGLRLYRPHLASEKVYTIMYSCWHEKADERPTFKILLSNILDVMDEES
Sequence of JAK3 (P52333 whole entry): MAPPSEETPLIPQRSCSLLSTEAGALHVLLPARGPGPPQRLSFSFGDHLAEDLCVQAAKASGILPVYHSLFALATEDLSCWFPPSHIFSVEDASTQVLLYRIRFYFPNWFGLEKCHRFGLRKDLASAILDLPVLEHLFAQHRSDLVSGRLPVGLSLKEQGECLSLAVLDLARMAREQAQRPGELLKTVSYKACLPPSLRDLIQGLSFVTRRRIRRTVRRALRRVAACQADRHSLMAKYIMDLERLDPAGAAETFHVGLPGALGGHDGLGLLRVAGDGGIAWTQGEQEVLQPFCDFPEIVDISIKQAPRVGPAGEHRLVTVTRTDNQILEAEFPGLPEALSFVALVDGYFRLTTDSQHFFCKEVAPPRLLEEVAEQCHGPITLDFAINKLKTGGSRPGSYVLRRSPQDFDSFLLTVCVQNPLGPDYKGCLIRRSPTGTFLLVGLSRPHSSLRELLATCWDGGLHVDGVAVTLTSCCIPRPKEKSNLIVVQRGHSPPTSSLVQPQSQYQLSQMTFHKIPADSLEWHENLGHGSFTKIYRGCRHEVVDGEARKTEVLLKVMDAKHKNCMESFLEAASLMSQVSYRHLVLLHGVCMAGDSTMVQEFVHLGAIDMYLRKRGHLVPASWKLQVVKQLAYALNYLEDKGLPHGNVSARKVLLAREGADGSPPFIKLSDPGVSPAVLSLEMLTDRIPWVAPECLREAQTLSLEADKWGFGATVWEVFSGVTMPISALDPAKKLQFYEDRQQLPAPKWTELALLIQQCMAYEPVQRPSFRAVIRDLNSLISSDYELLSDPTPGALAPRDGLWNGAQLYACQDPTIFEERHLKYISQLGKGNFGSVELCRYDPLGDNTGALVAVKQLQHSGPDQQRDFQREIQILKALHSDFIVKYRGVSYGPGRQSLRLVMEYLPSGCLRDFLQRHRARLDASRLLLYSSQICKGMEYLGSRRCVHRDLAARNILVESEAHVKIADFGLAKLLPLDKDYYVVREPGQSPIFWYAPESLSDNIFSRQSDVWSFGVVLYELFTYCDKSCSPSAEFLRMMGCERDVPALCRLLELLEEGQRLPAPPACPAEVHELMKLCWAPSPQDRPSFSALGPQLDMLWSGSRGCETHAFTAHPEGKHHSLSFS
Sequence of BLK (P51451 whole entry): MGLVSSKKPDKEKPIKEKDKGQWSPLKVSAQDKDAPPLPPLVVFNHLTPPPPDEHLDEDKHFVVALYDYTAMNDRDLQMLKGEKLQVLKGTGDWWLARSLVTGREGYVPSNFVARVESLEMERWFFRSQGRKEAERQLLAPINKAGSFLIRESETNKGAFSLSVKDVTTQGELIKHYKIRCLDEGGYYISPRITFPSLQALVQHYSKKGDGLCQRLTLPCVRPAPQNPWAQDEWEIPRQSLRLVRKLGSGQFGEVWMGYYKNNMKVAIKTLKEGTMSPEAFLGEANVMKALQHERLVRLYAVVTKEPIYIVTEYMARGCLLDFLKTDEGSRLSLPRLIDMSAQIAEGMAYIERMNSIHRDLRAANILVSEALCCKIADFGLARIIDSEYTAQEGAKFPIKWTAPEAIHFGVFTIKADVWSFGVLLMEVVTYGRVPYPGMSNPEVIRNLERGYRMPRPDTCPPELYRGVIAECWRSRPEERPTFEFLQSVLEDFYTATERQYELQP
Procedure for BCWM.1 cells: (§2) Various cell lines were used including Waldenström's macroglobulinemia (WM) cell lines (BCWM.1, MWCL-1, RPCI-WM1) and B-cell lymphoma cell lines (OCI-Ly3, Ramos, OCI-Ly19). Cells were seeded into 384 well plates with the EL406 Combination Washer Dispenser (BioTek Instruments, Inc.) and inhibitor compounds were injected into the cells culture media with the JANUS Automated Workstation (PerkinElmer Inc.).
Procedure for MWCL-1 cells: as §2
Procedure for OCI-Ly19 cells: as §2
Procedure for OCI-Ly3 cells: as §2
Procedure for Ramos cells: as §2

Turning to `C=CC(=O)N1CCc2ccc(-n3c(=O)ccc4cnc5ccc(-c6ccc(C(=O)NC)cc6F)cc5c43)cc21` [I-9], on BTK, the IC50 amounted to 0.054 µM. That is a double-digit nanomolar value.
Take `C=CC(=O)Nc1cc(-n2c(=O)ccc3cnc4ccc(-c5cnn(C)c5)cc4c32)ccc1C` [II-3]: the IC50 is 0.014 µM at BTK; 0.173 µM against mTOR; 0.00816 µM and 0.008 µM against BMX.
As to `C=CC(=O)N1CCc2ccc(-n3c(=O)ccc4cnc5ccc(-c6ccc(N7CCN(C)CC7)cc6)cc5c43)cc21` [I-17], the EC50 in the assay on Ramos cells amounted to 0.42 µM; in the assay on OCI-Ly19 cells, 0.08 µM; in the assay with OCI-Ly3 cells it was 1.12 µM; with BCWM.1 cells it was 0.49 µM; in the assay with MWCL-1 cells, 1.78 µM. In addition, the IC50 worked out at 0.155 µM on BTK, 0.516 µM at mTOR, 5.58 µM at JAK3 and 0.399 µM against BMX.
As to `C=CC(=O)Nc1cc(-n2c(=O)ccc3cnc4ccc(-c5ccc6c(c5)OCCO6)cc4c32)ccc1C` [I-18], the IC50 against BTK is 0.016 µM; at mTOR it was 0.642 µM; against BMX, 0.0133 µM and 0.013 µM.
In the case of `C=CC(=O)Nc1cc(-n2c(=O)ccc3cnc4ccc(-c5ccsc5)cc4c32)ccc1C` [II-9], the IC50 against BTK was 0.039 µM; at mTOR it was 0.369 µM; against BMX it was 0.0197 µM and 0.02 µM.
On to `C=CC(=O)N1CCc2ccc(-n3c(=O)ccc4cnc5ccc(-c6cnc7ccccc7c6)cc5c43)cc21` [II-12], for which the IC50 on BTK was 0.007 µM; against mTOR, 0.059 µM; at BMX, 0.00562 µM and 0.006 µM.
As for `C=CC(=O)Nc1cc(-n2c(=O)ccc3cnc4ccc(-c5ccc6occc6c5)cc4c32)ccc1C` [I-20], the EC50 with Ramos cells was 0.602 µM; with OCI-Ly19 cells, over 20 µM; in the assay with OCI-Ly3 cells, 1.1 µM; with BCWM.1 cells, 1.02 µM; in the assay on MWCL-1 cells, 0.798 µM.
As for `C=CC(=O)Nc1cc(-n2c(=O)ccc3cnc4ccc(-c5ccccc5)cc4c32)ccc1C` [I-7], the EC50 is 0.31 µM in the assay on Ramos cells; 0.01 µM with OCI-Ly19 cells; 0.38 µM in the assay on OCI-Ly3 cells; 0.18 µM in the assay on BCWM.1 cells; 0.95 µM in the assay with MWCL-1 cells. Besides, the IC50 against BTK is 0.025 µM; against BLK it was 0.25 µM; at mTOR it was 0.21 µM; against BMX, 0.0159 µM and 0.016 µM.
Turning to `C=CC(=O)Nc1cc(-n2c(=O)ccc3cnc4ccc(-c5ccc6c(c5)OCO6)cc4c32)ccc1C` [I-23], the EC50 in the assay with Ramos cells came to 0.653 µM; in the assay with OCI-Ly19 cells, 0.019 µM; with OCI-Ly3 cells it was 1.17 µM; with BCWM.1 cells, 0.849 µM; with MWCL-1 cells, 0.61 µM.
In the case of `C=CC(=O)Nc1cccc(-n2c(=O)ccc3cnc4ccc(-c5cn[nH]c5)cc4c32)c1` [II-8], the IC50 at BTK is 0.018 µM; at mTOR it was 0.041 µM; on BMX, 0.0105 µM and 0.011 µM.
Take `C=CC(=O)Nc1cc(-n2c(=O)ccc3cnc4ccc(-c5ccc6ocnc6c5)cc4c32)ccc1C` [I-24]: the EC50 in the assay on Ramos cells was 0.355 µM; in the assay on OCI-Ly19 cells, 0.024 µM; in the assay on OCI-Ly3 cells, 0.516 µM; in the assay on BCWM.1 cells, 0.345 µM; in the assay on MWCL-1 cells it was 0.284 µM.
`C=CC(=O)Nc1cccc(-n2c(=O)ccc3cnc4ccc(-c5ccc(N)nc5)cc4c32)c1` [II-7]: the IC50 at BTK was 0.019 µM; against mTOR, 0.019 µM; against BMX, 0.0157 µM and 0.016 µM.
Take `C=CC(=O)Nc1cc(-n2c(=O)ccc3cnc4ccc(-c5ccc(NC(=O)NC)cc5)cc4c32)ccc1C` [I-8]: the values for the IC50 against BTK, against JAK3 and against BMX were 0.066 µM, 4.17 µM and 0.0406 µM, respectively.
In the case of `C=CC(=O)Nc1cc(-n2c(=O)ccc3cnc4ccc(-c5ccc6[nH]ncc6c5)cc4c32)ccc1C` [I-22], the EC50 with Ramos cells turned out to be 0.091 µM; in the assay with OCI-Ly19 cells it was 0.051 µM; with OCI-Ly3 cells it was 0.18 µM; with BCWM.1 cells it was 0.203 µM; in the assay on MWCL-1 cells, 0.117 µM.
For `C=CC(=O)N1CCc2ccc(-n3c(=O)ccc4cnc5ccc(-c6ccc(COc7cccc(C(F)(F)F)c7)cc6)cc5c43)cc21` [I-10], the EC50 in the assay on Ramos cells worked out at 3.77 µM; in the assay on OCI-Ly19 cells, 0.29 µM; in the assay on OCI-Ly3 cells, 3.66 µM; in the assay with BCWM.1 cells it was 2.12 µM; with MWCL-1 cells it was 5.75 µM. The IC50 at BTK was 1.06 µM; against BMX, over 10 µM.
As to `C=CC(=O)N1CCc2ccc(-n3c(=O)ccc4cnc5ccc(-c6cnc(N)cc6C(F)(F)F)cc5c43)cc21` [II-15], on BTK, inhibition was half-maximal at 0.337 µM (IC50). This lies in the sub-micromolar range.
For the compound `C=CC(=O)Nc1cc(-n2c(=O)ccc3cnc4ccc(-c5ccc6ccncc6c5)cc4c32)ccc1C` [I-21], the EC50 in the assay on Ramos cells was 0.057 µM; in the assay with OCI-Ly19 cells, 0.09 µM; in the assay with OCI-Ly3 cells it was 0.109 µM; with BCWM.1 cells, 0.093 µM; in the assay on MWCL-1 cells it was 0.056 µM.
`C=CC(=O)Nc1cc(-n2c(=O)ccc3cnc4ccc(-c5ccoc5)cc4c32)ccc1C` [II-10]: the EC50 in the assay on Ramos cells came to 0.28 µM; in the assay on OCI-Ly19 cells, 0.07 µM; with OCI-Ly3 cells it was 0.48 µM; in the assay with BCWM.1 cells it was 0.41 µM; with MWCL-1 cells, 2.16 µM. Also, the IC50 on BTK was 0.017 µM; against mTOR it was 4.79 µM; on JAK3, 0.492 µM; at BMX it was 0.0121 µM and 0.012 µM.
On BTK, `C=CC(=O)Nc1cc(-n2c(=O)ccc3cnc4ccc(-c5ccc(C(N)=O)cc5)cc4c32)ccc1C` [I-15] displayed an IC50 of 0.079 µM.
Take `C=CC(=O)Nc1cc(-n2c(=O)ccc3cnc4ccc(-c5cnc6ccccc6c5)cc4c32)ccc1C` [II-16]: the IC50 on BTK is 0.025 µM; against mTOR, 0.032 µM; against BMX, 0.0185 µM and 0.019 µM.
Turning to `C=CC(=O)Nc1cc(-n2c(=O)ccc3cnc4ccc(-c5cccnc5)cc4c32)ccc1C` [II-11], the EC50 in the assay with Ramos cells stood at 0.2 µM; in the assay with OCI-Ly19 cells it was 0.09 µM; in the assay on OCI-Ly3 cells, 0.24 µM; in the assay on BCWM.1 cells it was 0.19 µM; in the assay on MWCL-1 cells, 0.67 µM. In addition, the IC50 at BTK is 0.115 µM; against BLK, 1.95 µM; on mTOR it was 0.001 µM; on JAK3 it was 1.52 µM; at BMX it was 0.0661 µM and 0.066 µM.
In the case of `C=CC(=O)Nc1cc(-n2c(=O)ccc3cnc4ccc(-c5ccc(COc6cccc(C(F)(F)F)c6)cc5)cc4c32)ccc1C` [I-13], the IC50 on BTK is 0.037 µM; against BMX it was 0.0181 µM and 0.028 µM.
For the compound `C=CC(=O)N1CCc2ccc(-n3c(=O)ccc4cnc5ccc(-c6ccc(S(=O)(=O)NC(C)(C)C)cc6)cc5c43)cc21` [I-11], the IC50 against BTK is 0.011 µM; on mTOR, 0.536 µM; on BMX, 0.0181 µM and 0.018 µM.
With `C=CC(=O)Nc1cc(-n2c(=O)ccc3cnc4ccc(/C=C/c5ccccc5)cc4c32)ccc1C` [I-16], the EC50 was found to be 0.42 µM in the assay with Ramos cells; 0.08 µM in the assay with OCI-Ly19 cells; 1.12 µM with OCI-Ly3 cells; 0.49 µM in the assay with BCWM.1 cells; 1.78 µM in the assay on MWCL-1 cells. The IC50 against BTK was 0.105 µM; on BMX it was 0.0278 µM and 0.028 µM.

The IC50 is the midpoint of a concentration-inhibition curve. As usually defined, the EC50 is the midpoint of the concentration-response curve. Lower therefore signals higher potency in that assay.

For the origin of these results see patent US10000483B2, “Bone marrow on X chromosome kinase (BMX) inhibitors and uses thereof” (Dana-Farber Cancer Institute, Inc., priority 2012, dated 2018).
